Literature values in US10359349B2, “Use of focused light scattering techniques in biological applications” (AIDIA INVESTMENT GROUP, INC., priority 2008, dated 2019).

Tested on: platelets
Conditions: platelet inhibition in arterial thrombophilic diseases; share of drug-treated patients whose platelets are not inhibited

| SMILES | treated patients who do not respond to treatment |
| --- | --- |
| CC(=O)Oc1ccccc1C(=O)O [ASA, Aspirin] | Approximately 25% |
| COC(=O)[C@H](c1ccccc1Cl)N1CCc2sccc2C1 [Plavix, clopidogrel bisulfate] | ~29% |
